Each compound was assayed against T1, MeCP2-TBL1 interaction (MeCP2-SmBiT / TBL1-LgBiT) (Mus musculus, UniProt Q9QXE7) (assay: MeCP2-TBL1 NanoLuc luciferase complementation assay (cell-free, extracts of transfected HEK293 cells)). Conditions: primary screen of Asinex library, single well per compound.
T1 construct: expressed in transfected cells; crude lysate used as a cell-free assay
T1 sequence (Q9QXE7 166-527): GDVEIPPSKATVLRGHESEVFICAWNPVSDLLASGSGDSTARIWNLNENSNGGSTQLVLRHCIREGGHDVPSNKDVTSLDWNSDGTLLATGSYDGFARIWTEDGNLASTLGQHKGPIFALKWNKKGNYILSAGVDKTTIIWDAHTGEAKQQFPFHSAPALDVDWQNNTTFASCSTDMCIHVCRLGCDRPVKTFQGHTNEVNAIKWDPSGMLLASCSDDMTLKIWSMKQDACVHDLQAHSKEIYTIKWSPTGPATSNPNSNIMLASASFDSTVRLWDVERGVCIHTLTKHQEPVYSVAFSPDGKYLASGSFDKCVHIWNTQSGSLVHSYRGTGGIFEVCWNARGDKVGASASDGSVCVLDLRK
Format: binding, human
In short: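 Cell-free split NanoLuc: lysate of HEK293 cells co-expressing the MeCP2 C-terminal half-SmBiT and TBL1 WD domain-LgBiT, mixed 1:1 with furimazine. After 30 min at room temperature, luminescence was plate-median normalized.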
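Further: each compound tested at 20 µM final concentration.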

Inhibition percent	SMILES
-3.52	COc1ccc(C(=O)N2CCCC(Cc3cccc4ncccc34)C2)cc1NCc1ccncc1 (centres unmarked) [BDH_32359947]
-0.14	Cn1cc(C(=O)Nc2cccc(C(=O)N3CCCC(Cc4cnc5ccccc5c4)CC3)c2)cn1 (centres unmarked) [BDH_32361063]
-1.66	C[C@]12C[C@@H](c3ccc(F)cc3)N(C(=O)c3cccc(Oc4ncccn4)c3)[C@H]1CCCCC(=O)N2 [BDH_32362535]
0.11	Cc1ccc(C(=O)N2CCC3(CC2)COC(Cc2cccc(F)c2)C3)cc1NCc1ccccn1 (centres unmarked) [BDH_32362747]
-3.40	Cc1cc(C(=O)N2CCC(Cc3cccc4cccnc34)CC2)nc(C2(C)CCN(C)CC2)n1 [BDH_32363559]
9.41	O=C(c1cccc(Nc2ncccn2)c1)N1CCC2(CC1)COC(Cc1cccc(F)c1)C2 (centres unmarked) [BDH_32363979]
-1.56	Cc1cc(Oc2ccc(F)cc2)nc(C2CCCCN2C(=O)c2cccc(-n3cnnc3)c2)n1 (centres unmarked) [BDH_32364593]
-0.96	Cc1cc(Oc2ccc(F)cc2)nc(C2CCCCN2C(=O)c2cccc(-c3cncnc3)n2)n1 (centres unmarked) [BDH_32364853]
-3.43	CC(=O)N[C@@]12CN(C)CC[C@@H]1[C@@H](c1ccccc1)N(C(=O)c1cccc(-n3nc(C)cc3C)c1)C2 [BDH_32365020]
-1.97	CN1CCN(c2cc(C(=O)N3CCC(O)(CN4CCN(c5ccccc5)CC4)C3)ccn2)CC1 (centres unmarked) [BDH_32365527]
0.18	Cc1cc(Oc2ccccc2F)nc(C2CCCCN2C(=O)c2ccnc(-c3cncnc3)c2)n1 (centres unmarked) [BDH_32366371]
-1.96	Cc1cccc(Cc2cccc(C3CCCN(C(=O)c4ccnc(-c5cncnc5)c4)C3)n2)c1 (centres unmarked) [BDH_32367369]
2.91	CC(C)(NC(=O)Cc1cccc(F)c1)C(=O)N1CCCC2(CC1)CN(c1ccccc1)C(=O)O2 (centres unmarked) [BDH_32367867]
-2.67	CC(=O)N1CCC(Cc2ccc(F)cc2)(C(=O)N2CCCC(Cc3cccc(C)n3)C2)CC1 (centres unmarked) [BDH_32369388]
-4.84	O=C(c1cccc(Oc2ncccn2)c1)N1CCCC2(CC1)CN(c1cccc(F)c1)C(=O)O2 (centres unmarked) [BDH_32369515]
-2.43	COc1ccccc1Oc1cccc(C2CCN(C(=O)c3ccc(-c4cncnc4)nc3)CC2)n1 [BDH_32370065]
-3.09	CNC(=O)C1CN(C(=O)C2(C)CCN(C(=O)c3ccccc3)CC2)CCN1Cc1ccccc1 (centres unmarked) [BDH_32370904]
-3.76	Cc1ccc(C(=O)N2C[C@@H](c3ccc(F)cc3)[C@@]3(CCCC(=O)N3)C2)cc1NCc1ccccn1 [BDH_32371225]
8.79	CN1C(=O)C2(CCN(C(=O)c3cccc(Nc4ncccn4)c3)CC2)CC1Cc1ccc(F)cc1 (centres unmarked) [BDH_32371589]
-2.75	O=C1COC2(CCCN(C(=O)c3ccccc3Cn3ccnc3)CC2)CN1CCc1ccccc1 (centres unmarked) [BDH_32371928]

Same assay, conditions: primary screen of the Asinex library, sheet "Sargen output Asinex library", one well per compound

Inhibition percent	SMILES
-0.32%	O=C1CCCN1CCOc1ccccc1C(=O)N1CCCC(Cc2ccc3ncccc3c2)CC1 (centres unmarked) [BDH_32358602]
2.06%	COc1ccc(C2(C(=O)N3CCCC(Cc4cccc5ccncc45)CC3)CCOCC2)cc1 (centres unmarked) [BDH_32359024]
-1.22%	Fc1cccc(COc2ccccc2CN2CCOCC(Cc3cn4ccnc4cn3)C2)c1 (centres unmarked) [BDH_32359710]
-0.97%	COc1ccccc1[C@@H]1CN(Cc2cccc(Oc3ncccn3)c2)C[C@]12CCCCC(=O)N2 [BDH_32359781]
3.25%	Cc1cc(Oc2ccccc2)nc(C2CCN(C(=O)C3(C)CCN(c4ncccn4)CC3)CC2)n1 [BDH_32359876]
-4.50%	COc1ccc(C(=O)N2CCCC(Cc3ccc4ncccc4c3)C2)cc1NCc1ccncc1 (centres unmarked) [BDH_32359951]
1.74%	O=C1CCCN1CCOc1cccc(C(=O)N2CCCC(Cc3cccc4cnccc34)CC2)c1 (centres unmarked) [BDH_32360253]
0.07%	Cc1cccc(Oc2cncc(C3CCCN(C(=O)c4cccc(Cn5ccnc5C)c4)C3)n2)c1 (centres unmarked) [BDH_32360361]
2.59%	Cc1nonc1COc1ccccc1C(=O)N1CCCC(Cc2nccn3cccc23)CC1 (centres unmarked) [BDH_32360822]
-0.42%	O=C(c1ccccc1CN1CCOCC1)N1C2CCC1CC(Cc1cncc3ccccc13)C2 (centres unmarked) [BDH_32360830]
-0.32%	Cn1cc(C(=O)Nc2cccc(C(=O)N3CCCC(Cc4ccnc5ccccc45)CC3)c2)cn1 (centres unmarked) [BDH_32361062]
1.28%	Cc1cc(Oc2ccc(F)cc2)nc(C2CCCN(C(=O)c3cccc(Cn4ccnc4)c3)C2)n1 (centres unmarked) [BDH_32361331]
-1.55%	Cc1cccc(Cc2cccc(C3CCCN(C(=O)c4ccnc(N5CCOCC5)c4)C3)n2)c1 (centres unmarked) [BDH_32361750]
-0.71%	CC1(C(=O)N2CCOCC(Cc3ccc4cnccc4c3)C2)CCN(CCc2ccccc2)CC1 (centres unmarked) [BDH_32362344]
-4.04%	CC1(C(=O)N2CCOCC(Cc3ccc4ccncc4c3)C2)CCN(CCc2ccccc2)CC1 (centres unmarked) [BDH_32362347]
2.04%	Cc1cccc(Cc2cccc(C3CCCN(C(=O)c4ccnc(-c5cnn(C)c5)c4)C3)n2)c1 (centres unmarked) [BDH_32362596]

Inhibition percent	SMILES
-2.83%	O=C(c1cccc(Oc2ncccn2)c1)N1CC[C@H]2[C@H]1CCCCC(=O)N2Cc1ccccc1 [BDH_32363931]
-0.54%	Cc1c(C(=O)N2CCC(O)(CN3CCN(c4ccccc4)CC3)C2)cccc1N1CCOCC1 (centres unmarked) [BDH_32364008]
-2.15%	Cc1nccn1Cc1ccccc1C(=O)N1CCCC(c2cncc(Oc3ccccc3)n2)C1 (centres unmarked) [BDH_32364323]
-4.83%	Cc1cc(Oc2ccc(F)cc2)nc(C2CCCCN2C(=O)c2ccnc(-c3cncnc3)c2)n1 (centres unmarked) [BDH_32364851]
2.72%	Cn1cc(-c2cccc(C(=O)N3CCC(c4cccc(Cc5ccc(F)cc5)n4)CC3)n2)cn1 [BDH_32365359]
7.56%	Cn1cc(-c2cccc(C(=O)N3CCCC(c4cccc(Cc5ccc(F)cc5)n4)C3)n2)cn1 (centres unmarked) [BDH_32365360]
-5.24%	COc1cccc(Oc2cc(C)nc(C3CCCCN3C(=O)c3cccc(-n4cnnc4)c3)n2)c1 (centres unmarked) [BDH_32365761]
4.29%	Cc1cc(CC2CCN(C(=O)C3(C)CCN(C(=O)Cc4cccc(F)c4)CC3)CC2)ccn1 [BDH_32366782]
-3.64%	CC(=O)N[C@@]12CN(C)CC[C@@H]1[C@@H](c1ccccc1)N(C(=O)c1cccc(Oc3ncccn3)c1)C2 [BDH_32367667]
-2.06%	Cc1cc(Oc2ccc(F)cc2)nc(C2CCN(C(=O)c3cncc(-c4cncnc4)c3)CC2)n1 [BDH_32369058]
0.98%	Cc1cc(Oc2ccccc2F)nc(C2CCN(C(=O)c3cncc(-c4cncnc4)c3)CC2)n1 [BDH_32370406]
-3.96%	Cc1nccn1Cc1cccc(C(=O)N2[C@H](Cc3ccccc3)C[C@]3(C)NC(=O)CCC[C@H]23)c1 [BDH_32370660]
-1.73%	O=C1OC2(CCCN(C(=O)c3ccnc(N4CCOCC4)c3)CC2)CN1CCc1ccccc1 (centres unmarked) [BDH_32370969]
4.95%	CNC(=O)c1cc(C)nc(C2(C)CCN(C(=O)c3ccc(C)c(NCc4ccccn4)c3)CC2)n1 [BDH_32371078]
1.17%	COc1ccc(C(=O)N2CCCC(Cc3cn4ccnc4cn3)CC2)cc1OCc1ccccn1 (centres unmarked) [BDH_32371251]
-4.00%	O=C(c1ccccc1CN1CCOCC1)N1CCOCC(Cc2ccc3ccncc3c2)C1 (centres unmarked) [BDH_32372076]

Same assay, conditions: primary screen of the Asinex library, sheet "Sargen output Asinex library", one well per compound, Batch Ref. 1

Inhibition percent	SMILES
2.74%	CN(C)CC(=O)N1CCCC(C)(C(=O)N2CCC(c3cccc(Cc4ccccc4)n3)CC2)C1 (centres unmarked) [BDH_32359557]
8.15%	Cc1ccc(Oc2cccc(C3CN(C(=O)c4cccc(Cn5ccnc5)c4)CCO3)n2)cc1 (centres unmarked) [BDH_32360064]
-2.76%	CC1(C(=O)N2CCCC(Cc3cccc4ccncc34)CC2)CCN(C(=O)c2ccccc2)CC1 (centres unmarked) [BDH_32360998]
3.43%	COc1ccc(Oc2cncc(C3CCN(C(=O)C4(c5ccccc5)CCOCC4)CC3)n2)cc1 [BDH_32362557]
1.46%	O=C(c1ccccc1Cn1ccnc1)N1CCCC(c2cccc(Cc3ccc(F)cc3)n2)C1 (centres unmarked) [BDH_32363926]
-1.79%	Cc1nc(N(C)C)cc(C2(C)CCCN(C(=O)c3ccc(Cl)c(N4CCOCC4)c3)C2)n1 (centres unmarked) [BDH_32364491]
2.70%	COc1ccccc1Oc1cccc(C2CCN(C(=O)c3ccnc(N4CCOCC4)c3)CC2)n1 [BDH_32364726]
4.12%	Cn1cc(-c2ccc(C(=O)N3CCCC(c4cccc(Cc5ccc(F)cc5)n4)C3)cn2)cn1 (centres unmarked) [BDH_32365364]
-5.94%	COc1cccc(Nc2ncccc2C(=O)N2CCOCC(Cc3nccn4cccc34)C2)c1 (centres unmarked) [BDH_32366009]
1.59%	Cn1cc(-c2cc(C(=O)N3CCC(c4cncc(-c5cccc(Cl)c5)n4)CC3)ccn2)cn1 [BDH_32366963]
-0.20%	O=C1CCCN1CCOc1cccc(C(=O)N2C3CCC2CC(Cc2cnc4[nH]ccc4c2)C3)c1 (centres unmarked) [BDH_32367285]
-1.52%	Cc1ccc(C2(C(=O)N3CCC(CC(=O)Nc4ccc5nccnc5c4)CC3)CCOCC2)cc1 [BDH_32368328]
1.94%	Cc1cc(Oc2ccccc2F)nc(C2CCN(C(=O)c3cccc(-c4cncnc4)n3)CC2)n1 [BDH_32368986]

Reference: article PMC9995496, “A screen for MeCP2-TBL1 interaction inhibitors using a luminescence-based assay” (Scientific Reports, 2023)
